Article PMC10235067, “Increased renal elimination of endogenous and synthetic pyrimidine nucleosides in concentrative nucleoside transporter 1 deficient mice” (Nature Communications, 2023)
Values joined by “and” are separate entries in the source; they are usually repeats but may differ in a detail not shown here. Identical values can stand only once. Counter-ions that a name gives are not always drawn.

Key:
KPC cells [1] = test: Tumor burden by bioluminescent imaging after orthotopic implantation of KPC-LUC cells; conditions: orthotopic KPC-LUC tumors, Gemcitabine group, Fig. 6C source data
KPC cells [2] = test: Survival of mice with orthotopic syngeneic KPC pancreatic tumors treated with dFdC
[3] = Gemcitabine plasma pharmacokinetics in Slc28a1+/+ and Slc28a1-/- mice; conditions: Gemcitabine in plasma, KO mice, iv gemcitabine 50mg/kg, per mouse

## Nc1ccn([C@@H]2O[C@H](CO)[C@@H](O)C2(F)F)c(=O)n1 [dFdC, Gemcitabine hydrochloride, reference compound]
KPC cells [1]; day 21, Slc28a1-/- mice
  Tumor burden (bioluminescent imaging signal), individual mice: 903000000000 and 356000000000 and 622000000000 and 1010000000000 and 2710000000000 and 506000000000
KPC cells [1]; day 21, wild-type mice
  Tumor burden (bioluminescent imaging signal), individual mice: 998000000000 and 735000000000 and 252000000000 and 420000000000 and 526000000000 and 763000000000
KPC cells [1]; day 25, Slc28a1-/- mice
  Tumor burden (bioluminescent imaging signal), individual mice: 1770000000000 and 1210000000000 and 722000000000 and 1860000000000 and 1930000000000 and 2060000000000
KPC cells [1]; day 25, wild-type mice
  Tumor burden (bioluminescent imaging signal), individual mice: 1230000000000 and 109000000000 and 355000000000 and 803000000000 and 1440000000000 and 1090000000000
KPC cells [2]; CNT1 (Slc28a1-/-) Gemcitabine (25mg/ml) group, Fig. 6E source data
  Survival, Days (individual mice): 27 days and 32 days and 35 days and 39 days
KPC cells [2]; CNT1 (Slc28a1-/-) Gemcitabine (37mg/ml) group, Fig. 6E source data
  Survival, Days (individual mice): 30 days and 43 days and 45 days and 46 days
KPC cells [2]; CNT1 (Slc28a1-/-) Gemcitabine group, Fig. 6D source data
  Survival, Days (individual mice): 26 days and 43 days and 35 days and 23 days and 45 days
KPC cells [2]; CNT1 + Gemcitabine (Slc28a1-/-), Fig. 6D source data
  Survival event flag (1 = event, 0 = censored), individual mice: 1
KPC cells [2]; CNT1 Gemcitabine (25mg/ml), Fig. 6E source data, column headed CNT1 + Vehicle
  Survival event flag (1 = event, 0 = censored), individual mice: 1
KPC cells [2]; CNT1 Gemcitabine (37mg/ml), Fig. 6E source data
  Survival event flag (1 = event, 0 = censored), individual mice: 1
KPC cells [2]; Slc28a1+/+ mice, dFdC 25 mg/kg i.v.
  mice remaining healthy at day 45: approximately 66%
KPC cells [2]; Slc28a1+/+ mice, dFdC 25 mg/kg i.v. twice a week, Fig. 6D
  median overall survival: > 50 days
KPC cells [2]; Slc28a1-/- mice, dFdC 25 mg/kg i.v.
  day by which all mice died: ≤ 45 days
KPC cells [2]; Slc28a1-/- mice, dFdC 25 mg/kg i.v. twice a week, Fig. 6D
  median overall survival: 39 days
KPC cells [2]; Slc28a1-/- mice, dFdC 37 mg/kg i.v. twice a week, Fig. 6E
  median overall survival: 42 days
KPC cells [2]; WT + Gemcitabine, Fig. 6D source data
  Survival event flag (1 = event, 0 = censored), individual mice: 0 and 1
KPC cells [2]; WT Gemcitabine group, Fig. 6D source data, event flag in WT + Gemcitabine
  Survival, Days (individual mice): 50 days and 33 days and 45 days
[3]
  AUCINF_D_obs: 916.304 kg·ng·min/mL/mg and 1339.88 kg·ng·min/mL/mg and 778.001 kg·ng·min/mL/mg and 1050.65 kg·ng·min/mL/mg and 1326.68 kg·ng·min/mL/mg and 1607.46 kg·ng·min/mL/mg
  AUCINF_D_pred: 916.913 kg·ng·min/mL/mg and 1340.31 kg·ng·min/mL/mg and 775.108 kg·ng·min/mL/mg and 1031 kg·ng·min/mL/mg and 1323.42 kg·ng·min/mL/mg and 1604.92 kg·ng·min/mL/mg
  AUCINF_obs: 45815.2 ng·min/mL and 66994.2 ng·min/mL and 38900.1 ng·min/mL and 52532.6 ng·min/mL and 66334.2 ng·min/mL and 80373 ng·min/mL
  AUCINF_pred: 45845.6 ng·min/mL and 67015.6 ng·min/mL and 38755.4 ng·min/mL and 51550 ng·min/mL and 66171.1 ng·min/mL and 80246 ng·min/mL
  AUC_%Back_Ext_obs: 23.4974% and 21.9481% and 43.9469% and 42.6077% and 48.9911% and 43.8068%
  AUC_%Back_Ext_pred: 23.4818% and 21.941% and 44.1109% and 43.4198% and 49.1119% and 43.8762%
  AUC_%Extrap_obs: 23.7% and 27.5311% and 0.9315% and 2.802% and 0.4504% and 6.001%
  AUC_%Extrap_pred: 23.7507% and 27.5543% and 0.5618% and 0.9493% and 0.2051% and 5.852%
  AUCall: 36446.4 ng·min/mL and 50206 ng·min/mL and 39423.8 ng·min/mL and 51060.7 ng·min/mL and 66882.1 ng·min/mL and 76930.3 ng·min/mL
  AUClast: 34957 ng·min/mL and 48549.9 ng·min/mL and 38537.7 ng·min/mL and 51060.7 ng·min/mL and 66035.4 ng·min/mL and 75549.7 ng·min/mL
  AUClast_D: 699.14 kg·ng·min/mL/mg and 970.999 kg·ng·min/mL/mg and 770.754 kg·ng·min/mL/mg and 1021.21 kg·ng·min/mL/mg and 1320.71 kg·ng·min/mL/mg and 1510.99 kg·ng·min/mL/mg
  AUMCINF_obs: 6487547 min*min*ng/mL and 15108021 min*min*ng/mL and 317047 min*min*ng/mL and 1417805 min*min*ng/mL and 460548 min*min*ng/mL and 2237155 min*min*ng/mL
  AUMCINF_pred: 6504522 min*min*ng/mL and 15124898 min*min*ng/mL and 306594 min*min*ng/mL and 1123964 min*min*ng/mL and 449037 min*min*ng/mL and 2195280 min*min*ng/mL
  AUMC_%Extrap_obs: 93.2939% and 96.2322% and 8.26% and 31.0459% and 4.579% and 71.0667%
  AUMC_%Extrap_pred: 93.3114% and 96.2364% and 5.1318% and 13.0191% and 2.133% and 70.5148%
  AUMClast: 435061 min*min*ng/mL and 569242 min*min*ng/mL and 290860 min*min*ng/mL and 977634 min*min*ng/mL and 439460 min*min*ng/mL and 647283 min*min*ng/mL
  C0: 2226.24 ng/mL and 3096.19 ng/mL and 4174.86 ng/mL and 5972.33 ng/mL and 9031.34 ng/mL and 9852.43 ng/mL
  Cl_obs: 1091.34 mL/min/kg and 746.334 mL/min/kg and 1285.35 mL/min/kg and 951.789 mL/min/kg and 753.759 mL/min/kg and 622.099 mL/min/kg
